From US10407446B2, “Amino-triazolopyridine compounds and their use in treating cancer” (AstraZeneca AB, priority 2016, dated 2019)
Where two headings read alike, the source gives them in different places.

Columns and labels:
[1] = target: JAK1 (Homo sapiens (Human), UniProt P23458); test: JAK1 enzyme assay (Z'-LYTE); type: biochemical; details: 75 μM ATP; mean of at least 2 experiments; read-out: JAK1 enz pIC50 (converted)
Description: (§1) d) Aurora-A, Aurora-B, JAK1, JAK2, JAK3 Enzyme Assays
(§2) The inhibitory activity of compounds against AURKA, AURKB, JAK1, JAK2 and JAK3 was determined in Z′-LYTE® assays run by ThermoFisher Scientific as part of their SelectScreen® Biochemical Kinase Profiling Service. The Z′-LYTE® biochemical assay format employs a fluorescence-based, coupled-enzyme format and is based on the differential sensitivity of phosphorylated and non-phosphorylated peptides to proteolytic cleavage. The peptide substrate is labeled with two fluorophores—one at each end—that make up a FRET pair. In the primary reaction, the kinase transfers the gamma-phosphate of ATP to a single tyrosine, serine or threonine residue in a synthetic FRET-peptide. In the secondary reaction, a site-specific protease recognises and cleaves non-phosphorylated FRET-peptides. Phosphorylation of FRET-peptides suppresses cleavage by the Development Reagent. Cleavage disrupts FRET between the donor (i.e., coumarin) and acceptor (i.e., fluorescein) fluorophores on the FRET-peptide, whereas uncleaved, phosphorylated FRET-peptides maintain FRET. A ratiometric method, which calculates the ratio (the Emission Ratio) of donor emission to acceptor emission after excitation of the donor fluorophore at 400 nm, is used to quantitate reaction progress. Both cleaved and uncleaved FRET-peptides contribute to the fluorescence signals and therefore to the Emission Ratio. The extent of phosphorylation of the FRET-peptide can be calculated from the Emission Ratio.
(§3) 2.4 μL Kinase Buffer (50 mM HEPES pH 7.5, 0.01% BRIJ-35, 10 mM MgCl2, 1 mM EGTA), 5 μL 2× Peptide/Kinase mixture (detailed below for each kinase) and 2.5 μL 4× ATP Solution (prepared in Kinase Buffer) were added separately to the compound plates, placed on a plate shaker for 30 sec, and then incubated for 60 mins at room temperature. […] Assay plates were placed on a plate shaker for 30 sec, incubated for 60 mins at room temperature, and then read using a fluorescence plate reader.

[2] = target: JAK2 (Homo sapiens (Human), UniProt O60674); test: JAK2 enzyme assay (Z'-LYTE); type: biochemical; details: 25 μM ATP; mean of at least 2 experiments; read-out: JAK2 enz pIC50 (converted)
JAK2, sequence (O60674 whole entry): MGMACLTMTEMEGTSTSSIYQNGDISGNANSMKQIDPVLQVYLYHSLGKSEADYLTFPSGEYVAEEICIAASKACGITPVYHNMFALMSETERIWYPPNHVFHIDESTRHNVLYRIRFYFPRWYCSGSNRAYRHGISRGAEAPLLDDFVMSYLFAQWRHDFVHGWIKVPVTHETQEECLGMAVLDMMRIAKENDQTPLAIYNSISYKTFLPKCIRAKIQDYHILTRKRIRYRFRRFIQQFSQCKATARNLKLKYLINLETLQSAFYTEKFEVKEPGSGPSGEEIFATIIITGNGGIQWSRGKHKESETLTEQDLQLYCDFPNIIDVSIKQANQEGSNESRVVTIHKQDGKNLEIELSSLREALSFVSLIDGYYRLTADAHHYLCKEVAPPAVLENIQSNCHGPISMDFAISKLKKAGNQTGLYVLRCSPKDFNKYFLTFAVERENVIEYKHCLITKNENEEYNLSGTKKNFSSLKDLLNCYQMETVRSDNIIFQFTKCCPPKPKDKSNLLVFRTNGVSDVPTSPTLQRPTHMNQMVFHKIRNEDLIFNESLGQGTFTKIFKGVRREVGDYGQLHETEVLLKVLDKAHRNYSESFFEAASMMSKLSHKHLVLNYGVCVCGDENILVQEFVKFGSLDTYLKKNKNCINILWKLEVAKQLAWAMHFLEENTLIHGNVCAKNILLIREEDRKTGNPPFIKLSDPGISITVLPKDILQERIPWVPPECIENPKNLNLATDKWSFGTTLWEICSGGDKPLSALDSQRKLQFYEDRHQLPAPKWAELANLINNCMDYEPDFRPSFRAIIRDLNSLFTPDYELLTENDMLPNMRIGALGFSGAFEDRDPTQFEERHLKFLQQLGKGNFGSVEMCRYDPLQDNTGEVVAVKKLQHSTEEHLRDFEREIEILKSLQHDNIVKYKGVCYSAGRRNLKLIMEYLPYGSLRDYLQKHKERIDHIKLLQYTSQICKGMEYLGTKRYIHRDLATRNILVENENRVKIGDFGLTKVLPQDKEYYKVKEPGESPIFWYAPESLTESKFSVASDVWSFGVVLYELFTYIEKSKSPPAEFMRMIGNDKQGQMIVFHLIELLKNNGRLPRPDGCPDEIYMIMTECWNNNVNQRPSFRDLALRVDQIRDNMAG
Description: as §1, §2, §3

[3] = target: JAK3 (Homo sapiens (Human), UniProt P52333); test: JAK3 enzyme assay (Z'-LYTE); type: biochemical; details: 10 μM ATP; mean of at least 2 experiments; read-out: JAK3 enz pIC50 (converted)
JAK3, sequence (P52333 whole entry): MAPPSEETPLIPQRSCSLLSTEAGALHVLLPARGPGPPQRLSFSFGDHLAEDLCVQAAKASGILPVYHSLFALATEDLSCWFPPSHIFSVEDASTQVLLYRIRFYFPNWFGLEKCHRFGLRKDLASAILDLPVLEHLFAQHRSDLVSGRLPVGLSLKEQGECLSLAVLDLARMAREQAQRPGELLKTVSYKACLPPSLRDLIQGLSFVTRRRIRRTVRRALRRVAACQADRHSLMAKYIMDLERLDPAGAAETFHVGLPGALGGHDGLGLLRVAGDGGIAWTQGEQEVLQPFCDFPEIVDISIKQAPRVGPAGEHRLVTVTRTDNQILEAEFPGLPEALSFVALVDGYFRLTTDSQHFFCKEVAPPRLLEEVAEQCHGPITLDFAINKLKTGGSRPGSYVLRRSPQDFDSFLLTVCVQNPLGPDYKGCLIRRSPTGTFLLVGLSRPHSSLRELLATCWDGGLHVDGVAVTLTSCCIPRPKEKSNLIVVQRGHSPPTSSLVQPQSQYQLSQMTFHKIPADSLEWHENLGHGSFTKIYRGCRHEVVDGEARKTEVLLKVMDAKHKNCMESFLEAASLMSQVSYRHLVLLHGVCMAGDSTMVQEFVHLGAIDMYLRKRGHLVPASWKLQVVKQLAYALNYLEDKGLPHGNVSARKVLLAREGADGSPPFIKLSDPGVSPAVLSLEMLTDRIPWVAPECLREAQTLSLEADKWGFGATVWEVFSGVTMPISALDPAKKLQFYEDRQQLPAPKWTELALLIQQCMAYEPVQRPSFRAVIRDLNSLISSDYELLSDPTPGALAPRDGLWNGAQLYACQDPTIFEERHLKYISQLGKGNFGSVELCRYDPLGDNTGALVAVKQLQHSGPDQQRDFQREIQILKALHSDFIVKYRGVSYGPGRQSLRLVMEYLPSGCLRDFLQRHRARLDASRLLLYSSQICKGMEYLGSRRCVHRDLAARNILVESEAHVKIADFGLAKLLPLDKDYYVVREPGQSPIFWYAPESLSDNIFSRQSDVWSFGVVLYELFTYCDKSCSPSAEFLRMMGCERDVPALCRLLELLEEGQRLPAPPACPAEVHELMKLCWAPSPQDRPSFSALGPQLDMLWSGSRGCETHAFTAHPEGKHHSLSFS
Description: The 2× AURKB (Aurora B)/Ser/[…]

[4] = target: AURKA (Aurora A) (Homo sapiens (Human), UniProt O14965); test: Aurora-A enzyme assay (Z'-LYTE); type: biochemical; details: 10 μM ATP; mean of at least 2 experiments; read-out: AurA enz pIC50 (converted)
AURKA (Aurora A), sequence (O14965 whole entry): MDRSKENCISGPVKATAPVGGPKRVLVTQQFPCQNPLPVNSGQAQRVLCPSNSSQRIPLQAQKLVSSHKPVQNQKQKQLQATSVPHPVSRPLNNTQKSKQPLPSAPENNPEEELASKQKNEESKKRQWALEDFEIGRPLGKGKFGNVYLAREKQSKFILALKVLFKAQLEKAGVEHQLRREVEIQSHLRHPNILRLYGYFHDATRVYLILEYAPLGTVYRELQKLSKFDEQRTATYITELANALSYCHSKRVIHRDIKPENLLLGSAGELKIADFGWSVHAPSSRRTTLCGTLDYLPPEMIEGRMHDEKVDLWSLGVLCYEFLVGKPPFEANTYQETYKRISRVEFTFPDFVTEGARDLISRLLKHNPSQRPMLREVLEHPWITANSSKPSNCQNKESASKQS
Description: as §1, §2, §3

[5] = target: AURKB (Aurora B) (Homo sapiens (Human), UniProt Q96GD4); test: Aurora-B enzyme assay (Z'-LYTE); type: biochemical; details: 75 μM ATP; mean of at least 2 experiments; read-out: AurB enz pIC50 (converted)
AURKB (Aurora B), sequence (Q96GD4 whole entry): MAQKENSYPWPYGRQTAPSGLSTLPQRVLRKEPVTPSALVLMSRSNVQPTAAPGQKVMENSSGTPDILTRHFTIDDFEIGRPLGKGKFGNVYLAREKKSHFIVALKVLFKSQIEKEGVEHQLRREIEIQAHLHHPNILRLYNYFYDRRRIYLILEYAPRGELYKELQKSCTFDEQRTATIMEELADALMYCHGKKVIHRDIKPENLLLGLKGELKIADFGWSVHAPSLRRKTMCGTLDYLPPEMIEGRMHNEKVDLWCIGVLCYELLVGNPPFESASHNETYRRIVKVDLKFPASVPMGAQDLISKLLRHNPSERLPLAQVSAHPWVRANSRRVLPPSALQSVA
Description: as §1, §2, §3

[6] = target: TTK (Homo sapiens (Human), UniProt P33981); test: TTK enzyme assay (LanthaScreen Eu Kinase Binding assay); details: mean of at least 2 experiments
TTK, sequence (P33981 whole entry): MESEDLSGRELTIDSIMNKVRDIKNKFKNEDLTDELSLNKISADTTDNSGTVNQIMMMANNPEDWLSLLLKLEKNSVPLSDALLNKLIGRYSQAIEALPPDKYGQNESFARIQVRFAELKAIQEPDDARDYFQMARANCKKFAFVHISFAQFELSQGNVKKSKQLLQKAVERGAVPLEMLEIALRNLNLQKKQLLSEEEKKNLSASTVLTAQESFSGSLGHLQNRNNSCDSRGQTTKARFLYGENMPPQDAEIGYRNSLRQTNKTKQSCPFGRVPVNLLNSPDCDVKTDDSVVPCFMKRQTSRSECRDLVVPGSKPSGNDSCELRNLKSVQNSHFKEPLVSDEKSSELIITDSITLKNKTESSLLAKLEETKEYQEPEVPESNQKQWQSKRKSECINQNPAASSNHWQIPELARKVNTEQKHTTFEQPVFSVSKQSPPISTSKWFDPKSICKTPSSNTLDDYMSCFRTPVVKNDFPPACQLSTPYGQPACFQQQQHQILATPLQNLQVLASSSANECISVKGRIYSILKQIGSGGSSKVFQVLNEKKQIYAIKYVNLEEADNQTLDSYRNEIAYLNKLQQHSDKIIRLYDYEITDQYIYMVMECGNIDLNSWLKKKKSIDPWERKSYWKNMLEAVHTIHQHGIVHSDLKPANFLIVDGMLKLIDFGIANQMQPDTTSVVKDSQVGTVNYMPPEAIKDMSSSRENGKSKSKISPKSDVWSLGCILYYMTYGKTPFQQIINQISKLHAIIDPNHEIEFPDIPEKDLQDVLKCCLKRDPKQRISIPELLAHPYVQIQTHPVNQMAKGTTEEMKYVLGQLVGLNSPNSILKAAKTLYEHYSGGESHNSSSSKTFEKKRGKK
Description: The LanthaScreen® Eu Kinase Binding assay format uses binding of an Alexa Fluor® conjugate or “tracer” to a kinase, which is detected by addition of a Eu-labeled anti-tag antibody. […] The degree of FRET measured in the assay is used to determine the binding of a compound.
Plates were then read using a fluorescence plate reader.

[7] = target: T1, DNAPK (Homo sapiens (Human), UniProt P78527); type: biochemical; details: mean of at least 2 experiments; 18 μM ATP; read-out: DNA-PK enz pIC50 (converted)
Description: The following assays were used to measure the effects of the compounds described herein: a) DNAPK enzyme potency assay; b) DNAPK cellular potency assay. During the description of the assays, generally: • i. The following abbreviations have been used; DMSO=Dimethyl Sulphoxide; DTT=Dithiothreitol; EDTA=Ethylenediaminetetraacetic Acid, TR-FRET=Time Resolved Fluorescence Resonance Energy Transfer, ATP=Adenosine triphosphate, DTT=Dithiothreitol, DNA=Deoxyribonucleic acid, HEPES=(2-hydroxyethyl)-1-piperazineethanesulfonic acid • ii.

[8] = target: T1, DNAPK; test: DNAPK cellular potency assay (DNA-PK cell), pS2056-DNAPK ELISA in irradiated A549 cells; type: cell-based; details: A549 cell line, 8 Gy radiation, mean of at least 2 experiments, read-out: DNA-PK cell pIC50 (converted)

JAK1, sequence (P23458 whole entry): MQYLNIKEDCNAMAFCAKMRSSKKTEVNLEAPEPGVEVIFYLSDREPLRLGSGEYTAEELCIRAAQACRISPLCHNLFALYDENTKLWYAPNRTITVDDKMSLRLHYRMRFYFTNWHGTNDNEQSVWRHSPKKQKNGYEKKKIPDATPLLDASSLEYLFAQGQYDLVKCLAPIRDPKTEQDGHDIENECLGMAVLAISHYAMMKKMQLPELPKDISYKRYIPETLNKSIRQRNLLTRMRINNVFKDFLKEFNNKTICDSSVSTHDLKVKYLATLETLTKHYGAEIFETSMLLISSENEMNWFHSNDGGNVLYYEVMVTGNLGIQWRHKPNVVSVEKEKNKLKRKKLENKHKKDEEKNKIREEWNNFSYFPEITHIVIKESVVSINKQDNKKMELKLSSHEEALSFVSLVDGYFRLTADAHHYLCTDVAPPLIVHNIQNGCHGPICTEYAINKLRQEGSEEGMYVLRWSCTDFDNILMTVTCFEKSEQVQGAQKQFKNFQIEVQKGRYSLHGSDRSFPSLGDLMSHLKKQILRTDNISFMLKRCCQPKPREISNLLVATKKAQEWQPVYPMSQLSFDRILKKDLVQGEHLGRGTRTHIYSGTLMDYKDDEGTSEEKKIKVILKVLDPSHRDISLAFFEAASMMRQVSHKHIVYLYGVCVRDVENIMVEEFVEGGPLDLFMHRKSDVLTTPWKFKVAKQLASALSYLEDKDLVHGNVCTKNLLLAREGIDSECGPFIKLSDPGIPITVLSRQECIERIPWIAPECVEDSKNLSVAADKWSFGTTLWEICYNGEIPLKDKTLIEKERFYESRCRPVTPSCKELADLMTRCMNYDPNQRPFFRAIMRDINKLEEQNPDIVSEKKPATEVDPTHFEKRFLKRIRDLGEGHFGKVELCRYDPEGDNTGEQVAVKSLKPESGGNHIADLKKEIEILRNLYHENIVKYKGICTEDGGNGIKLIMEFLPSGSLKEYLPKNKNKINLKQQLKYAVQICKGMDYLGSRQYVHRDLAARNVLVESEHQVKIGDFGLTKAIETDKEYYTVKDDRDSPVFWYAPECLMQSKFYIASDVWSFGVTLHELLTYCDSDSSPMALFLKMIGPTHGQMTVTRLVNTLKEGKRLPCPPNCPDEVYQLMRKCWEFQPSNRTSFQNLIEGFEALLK

Structure (SMILES) | IC50 [1] | IC50 [2] | IC50 [3] | IC50 [4] | IC50 [5] | TTK enz pIC50 [6] | IC50 [7] | IC50 [8] | IC50 ([6]; read-out: TTK enz pIC50 (converted))
Cc1cc2ncnn2cc1Nc1ncc2c(n1)n([C@H]1CC[C@](C)(O)CC1)c(=O)n2C [Example 9, 9-((1r,4r)-4-hydroxy-4-methylcyclohexyl)-7-methyl-2-((7-methyl-[1,2,4]triazolo[1,5-a]pyridin-6-yl)amino)-7,9-dihydro-8H-purin-8-one] | > 10 µM | > 10 µM | > 10 µM | > 10 µM | > 10 µM |  |  |  | 
Cc1cc2ncnn2cc1Nc1ncc2c(n1)n([C@H]1CC[C@@H](O)CC1)c(=O)n2C [Example 2, 9-((1s,4s)-4-hydroxycyclohexyl)-7-methyl-2-((7-methyl-[1,2,4]triazolo[1,5-a]pyridin-6-yl)amino)-7,9-dihydro-8H-purin-8-one] | > 10 µM | > 10 µM | > 10 µM | > 10 µM | > 10 µM | 6.1 |  |  | 
Cc1cc2ncnn2cc1Nc1ncc2c(n1)n([C@]1(C)CC[C@H](O)CC1)c(=O)n2C [Example 12, 9-((1s,4s)-4-hydroxy-1-methylcyclohexyl)-7-methyl-2-((7-methyl-[1,2,4]triazolo[1,5-a]pyridin-6-yl)amino)-7,9-dihydro-8H-purin-8-one] | > 10 µM | > 10 µM | > 10 µM | > 10 µM | > 10 µM | 5.8 | 0.0002 µM | 0.0398 µM | 
Cc1cc2ncnn2cc1Nc1ncc2c(n1)n([C@H]1CCOC1)c(=O)n2C [Example 11, (S)-7-methyl-2-((7-methyl-[1,2,4]triazolo[1,5-a]pyridin-6-yl)amino)-9-(tetrahydrofuran-3-yl)-7,9-dihydro-8H-purin-8-one] | > 10 µM | > 10 µM | > 10 µM | > 10 µM | > 10 µM |  | 0.000501 µM | 0.158 µM | > 7.94 µM
Cc1cc2ncnn2cc1Nc1ncc2c(n1)n(C1CCCCC1)c(=O)n2C [Example 13, 9-cyclohexyl-7-methyl-2-((7-methyl-[1,2,4]triazolo[1,5-a]pyridin-6-yl)amino)-7,9-dihydro-8H-purin-8-one] | > 10 µM | > 10 µM | > 10 µM | 3.98 µM | > 10 µM | 6.3 |  |  | 
Cc1cc2ncnn2cc1Nc1ncc2c(n1)n([C@H]1CC[C@H](O)CC1)c(=O)n2C [Example 1, 9-((1r,4r)-4-hydroxycyclohexyl)-7-methyl-2-((7-methyl-[1,2,4]triazolo[1,5-a]pyridin-6-yl)amino)-7,9-dihydro-8H-purin-8-one] | > 10 µM | > 10 µM | > 10 µM | > 10 µM | > 10 µM | 5.5 |  |  | 
CO[C@H]1CC[C@@H](n2c(=O)n(C)c3cnc(Nc4cn5ncnc5cc4C)nc32)CC1 [Example 5, 9-((1s,4s)-4-methoxycyclohexyl)-7-methyl-2-((7-methyl-[1,2,4]triazolo[1,5-a]pyridin-6-yl)amino)-7,9-dihydro-8H-purin-8-one] | > 10 µM | > 10 µM | > 10 µM | > 10 µM | > 10 µM | 5.3 | 0.001 µM | 0.126 µM | 
Cc1cc2ncnn2cc1Nc1ncc2c(n1)n([C@H]1CCCOC1)c(=O)n2C [Example 7, (S)-7-methyl-2-((7-methyl-[1,2,4]triazolo[1,5-a]pyridin-6-yl)amino)-9-(tetrahydro-2H-pyran-3-yl)-7,9-dihydro-8H-purin-8-one] | > 10 µM | > 10 µM | > 10 µM | > 10 µM | > 10 µM | 5.2 | 0.000158 µM | 0.0501 µM | 
Cc1nc2cc(C)c(Nc3ncc4c(n3)n(C3CCOCC3)c(=O)n4C)cn2n1 [Example 4, 2-((2,7-dimethyl-[1,2,4]triazolo[1,5-a]pyridin-6-yl)amino)-7-methyl-9-(tetrahydro-2H-pyran-4-yl)-7,9-dihydro-8H-purin-8-one] | > 10 µM | > 10 µM | > 10 µM | > 10 µM | > 10 µM | 5.1 | 0.00126 µM | 0.158 µM | 
CO[C@H]1CC[C@H](n2c(=O)n(C)c3cnc(Nc4cn5ncnc5cc4C)nc32)CC1 [Example 6, 9-((1r,4r)-methoxycyclohexyl)-7-methyl-2-((7-methyl-[1,2,4]triazolo[1,5-a]pyridin-6-yl)amino)-7,9-dihydro-8H-purin-8-one] | > 10 µM | > 10 µM | > 10 µM | > 10 µM | > 10 µM | 5.9 | 0.000251 µM | 0.0398 µM | 
Cc1cc2ncnn2cc1Nc1ncc2c(n1)n([C@H]1CC[C@@](C)(O)CC1)c(=O)n2C [Example 10, 9-((1s,4s)-4-hydroxy-4-methylcyclohexyl)-7-methyl-2-((7-methyl-[1,2,4]triazolo[1,5-a]pyridin-6-yl)amino)-7,9-dihydro-8H-purin-8-one] | > 10 µM | > 10 µM | > 10 µM | > 10 µM | > 10 µM |  |  |  | 
Cc1cc2ncnn2cc1Nc1ncc2c(n1)n([C@@H]1CCCOC1)c(=O)n2C [Example 8, (R)-7-methyl-2-((7-methyl-[1,2,4]triazolo[1,5-a]pyridin-6-yl)amino)-9-(tetrahydro-2H-pyran-3-yl)-7,9-dihydro-8H-purin-8-one] | > 10 µM | > 10 µM | > 10 µM | > 10 µM | > 10 µM | 5.2 | 0.000398 µM | 0.0631 µM | 
Cc1cc2ncnn2cc1Nc1ncc2c(n1)n(C1CCOCC1)c(=O)n2C [Example 3, 7-methyl-2-((7-methyl-[1,2,4]triazolo[1,5-a]pyridin-6-yl)amino)-9-(tetrahydro-2H-pyran-4-yl)-7,9-dihydro-8H-purin-8-one] | > 10 µM | > 10 µM | > 10 µM | > 10 µM | > 10 µM |  |  |  | 
